Source: the supplement of paper PMC10307832

Tests used:
Test in all cases: relative viability (nuclei count vs DMSO), 5 days (fraction); higher = more cells survive
[1] = compound: COC1=CC=C(C=C1)CN2C=CC3=C2C=C(C=C3)C(=O)NO + N=C(N)NC(=N)NCCc1ccccc1 [Phenformin] (partner 250 µM)
In short: (§1)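 Lung cancer cell lines in 1536-well plates were dosed by pin tool the day after seeding, either with one drug alone or with a fixed anchor-drug dose plus five library-drug doses (not always all listed) in √10 steps. After 5 days, cells were fixed and their nuclei stained in one step (final 0.05% Triton X-100, 1% formaldehyde, 1 ug/ml Hoechst), then counted on 4× images. Relative viability is the nuclei count in treated wells divided by that in vehicle wells. Values are medians of duplicate plates.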

Veliparib + Trametinib = compound: C[C@]1(c2nc3c(C(N)=O)cccc3[nH]2)CCCN1 [Veliparib] + CC(=O)Nc1cccc(-n2c(=O)n(C3CC3)c(=O)c3c(Nc4ccc(I)cc4F)n(C)c(=O)c(C)c32)c1 [Trametinib] (partner 0.02 µM)
In short: as §1

Veliparib + Pictilisib = compound: C[C@]1(c2nc3c(C(N)=O)cccc3[nH]2)CCCN1 [Veliparib] + CS(=O)(=O)N1CCN(Cc2cc3nc(-c4cccc5[nH]ncc45)nc(N4CCOCC4)c3s2)CC1 [Pictilisib] (partner 1 µM)
In short: as §1

Veliparib + Vorinostat = compound: C[C@]1(c2nc3c(C(N)=O)cccc3[nH]2)CCCN1 [Veliparib] + O=C(CCCCCCC(=O)Nc1ccccc1)NO [Vorinostat] (partner 1 µM)
In short: as §1

Cell Line	relative viability ([1]; first compound 0.253 µM)	relative viability ([1]; first compound 0.8 µM)	relative viability ([1]; first compound 2.53 µM)	relative viability ([1]; first compound 8 µM)	relative viability (Veliparib + Trametinib; first compound 0.02 µM)	relative viability (Veliparib + Trametinib; first compound 0.06325 µM)	relative viability (Veliparib + Trametinib; first compound 0.2 µM)	relative viability (Veliparib + Trametinib; first compound 0.6325 µM)	relative viability (Veliparib + Trametinib; first compound 2 µM)	relative viability (Veliparib + Pictilisib; first compound 0.02 µM)	relative viability (Veliparib + Pictilisib; first compound 0.06325 µM)	relative viability (Veliparib + Pictilisib; first compound 0.2 µM)	relative viability (Veliparib + Pictilisib; first compound 0.6325 µM)	relative viability (Veliparib + Pictilisib; first compound 2 µM)	relative viability (Veliparib + Vorinostat; first compound 0.02 µM)	relative viability (Veliparib + Vorinostat; first compound 0.06325 µM)	relative viability (Veliparib + Vorinostat; first compound 0.2 µM)	relative viability (Veliparib + Vorinostat; first compound 0.6325 µM)	relative viability (Veliparib + Vorinostat; first compound 2 µM)	relative viability ([1]; first compound 0.08 µM)
NCI-H838	0.589	0.6	0.628	0.456	0.566	0.501	0.54	0.524	0.521	0.441	0.455	0.418	0.335	0.457	0.792	0.692	0.71	0.652	0.725	–
NCI-H1355	0.459	0.52	0.482	0.426	0.368	0.282	0.438	0.422	0.447	–	0.329	0.477	0.406	0.472	0.44	0.528	0.638	0.626	0.596	–
NCI-H1395	0.463	0.469	0.407	0.413	0.995	0.96	0.924	0.899	0.857	–	0.516	0.557	0.675	0.524	0.432	0.485	0.648	0.638	0.499	0.37
NCI-H1437	0.348	0.36	0.424	0.274	0.502	0.527	0.514	0.502	0.497	0.419	0.512	0.552	0.378	0.362	0.886	0.746	0.798	0.887	0.813	0.289
NCI-H1650	0.447	0.422	0.334	0.204	0.335	0.374	0.58	0.497	0.508	–	0.507	0.61	0.519	0.566	0.57	0.471	0.523	0.627	0.6	0.4
NCI-H1651	0.302	0.39	0.325	0.275	0.844	0.836	0.785	0.77	0.8	0.572	0.601	0.559	0.457	0.558	0.557	0.551	0.513	0.464	0.504	0.349
NCI-H1666	0.558	0.557	0.579	0.523	0.84	0.861	0.782	0.754	0.926	0.357	0.334	0.625	0.427	0.49	0.988	0.963	1.14	0.997	1.05	0.559
NCI-H1734	0.413	0.386	0.392	0.383	–	0.613	0.792	0.631	0.72	0.461	0.436	0.492	0.437	0.435	–	0.772	0.796	0.785	0.788	–
NCI-H1755	0.678	0.636	0.637	0.61	0.821	0.763	0.812	0.741	0.768	0.403	0.415	0.479	0.434	0.432	0.758	0.774	0.725	0.723	0.714	0.595
NCI-H1793	0.457	0.438	0.414	0.368	0.476	0.417	0.474	0.361	0.465	0.375	0.306	0.343	0.261	0.356	0.654	0.697	0.58	0.807	0.722	–
NCI-H1915	0.38	0.378	0.359	0.348	0.309	0.289	0.302	0.292	0.291	0.989	0.87	0.727	0.808	0.86	0.499	0.465	0.396	0.388	0.426	0.348
NCI-H1944	0.234	0.195	0.188	0.165	0.432	0.398	0.418	0.418	0.405	0.344	0.311	0.338	0.323	0.351	0.491	0.498	0.388	0.44	0.459	–
NCI-H1975	0.417	0.431	0.407	0.399	0.339	0.335	0.329	0.344	0.331	0.292	0.283	0.336	0.282	0.287	0.771	0.688	0.698	0.639	0.659	0.442
NCI-H1993	0.571	0.445	0.477	0.457	–	0.63	0.519	0.425	0.552	0.772	0.826	0.822	0.807	0.805	–	0.775	0.966	0.804	0.688	0.512
NCI-H2009	0.483	0.482	0.501	0.43	0.289	0.291	0.316	0.302	0.33	0.734	0.777	0.704	0.786	0.813	0.771	0.65	0.709	0.708	0.795	0.489
